The supplement of paper PMC11208160

Assay: recombinant UMI read abundance after kanamycin selection (control-corrected) (log10(CPM+1)); higher = more efficient recombination; extreme values may be limits of the assay; sequences stand for … in AGTGCAGAGAAAATCGGCCAGTTTTCTCTGCCTGCAGTCCGCATGCCGTGGGACCCCTTGGGTTCTAACCTGTTGCCTAGATTTATGCAGCGGACTGCCTTTCTCCCAAAGTGATAAACCGG…AGGTTGGTTTCACT; site = the 11-nt donor
Procedure, shortened: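 Two replicates each of selected and unselected plating were used in this pooled Escherichia coli screen of donor and donor-binding-loop pairs for the IS621 bridge recombinase. Selection was with IPTG (0.07 mM) and kanamycin. Counts of recombinant UMIs, amplified across the donor–target junction, were converted to CPM, averaged, scaled by control-derived factors and reported as log10(CPM+1).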
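Note: IS621 bridge recombinase in Escherichia coli cells against a fixed T5 target plasmid.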

| Sequence | recombinant UMI read abundance (log10) |
| --- | --- |
| GTTGCGGCATGGACCGGTTTTCCCGGTAATCCGTATTTGCT (site GTTGCGGCTAG) | 1.49 |
| GTTGCGGCATGGACCGGTTTTCCCGGTAATCCGTATTTGCT (site TTTGCGGCTAG) | 0.731 |
| GTTGGAACATGGACCGGTTTTCCCGGTAATCCGTATTTGCC (site GTTGGAACTGG) | 2.34 |
| GTTGGAACATGGACCGGTTTTCCCGGTAATCCGTATTTGTT (site GTTGGAACTAA) | 2 |
| GTTGGTACATGGACCGGTTTTCCCGGTAATCCGTATTTGAC (site GTAGGTACTGT) | 1.9 |
| GTTGGTACATGGACCGGTTTTCCCGGTAATCCGTATTTGAC (site GTCGGTACTGT) | 2.31 |
| GTTGGTACATGGACCGGTTTTCCCGGTAATCCGTATTTGAC (site GTGGGTACTGT) | 0 |
| GTTGGTACATGGACCGGTTTTCCCGGTAATCCGTATTTGAC (site GTTGGTACTGT) | 2.36 |
| GTTGTTACATGGACCGGTTTTCCCGGTAATCCGTATTTGCA (site GTTGTTACTTG) | 2.25 |
| GTTGTTGCATGGACCGGTTTTCCCGGTAATCCGTATTTGGT (site GTTGTTACTAC) | 0.375 |
| GTTGTTGCATGGACCGGTTTTCCCGGTAATCCGTATTTGGT (site GTTGTTCCTAC) | 0.00209 |
| GTTGTTGCATGGACCGGTTTTCCCGGTAATCCGTATTTGGT (site GTTGTTGCTAC) | 1.83 |
| GTTGTTGCATGGACCGGTTTTCCCGGTAATCCGTATTTGGT (site GTTGTTTCTAC) | 0 |
| GTTTAAGCATGGACCGGTTTTCCCGGTAATCCGTATTTGAC (site GTTTAAGCTGT) | 2.24 |
| GTTTAGGCATGGACCGGTTTTCCCGGTAATCCGTATTTGCA (site GTTTAGGCTTG) | 2.03 |
| GTTTAGTCATGGACCGGTTTTCCCGGTAATCCGTATTTGAT (site GTTTAGTCTAT) | 1.59 |
| GTTTCGACATGGACCGGTTTTCCCGGTAATCCGTATTTGTC (site GTTTCGACTGA) | 0.157 |
| GTTTGAGCATGGACCGGTTTTCCCGGTAATCCGTATTTGCA (site GTTAGAGCTTG) | 1.32 |
| GTTTGAGCATGGACCGGTTTTCCCGGTAATCCGTATTTGCA (site GTTCGAGCTTG) | 1.89 |
| GTTTGAGCATGGACCGGTTTTCCCGGTAATCCGTATTTGCA (site GTTGGAGCTTG) | 1.55 |
| GTTTGAGCATGGACCGGTTTTCCCGGTAATCCGTATTTGCA (site GTTTGAGCTTG) | 2.07 |
| GTTTGCACATGGACCGGTTTTCCCGGTAATCCGTATTTGTA (site GTATGCACTTA) | 0.00807 |
| GTTTGCACATGGACCGGTTTTCCCGGTAATCCGTATTTGTA (site GTCTGCACTTA) | 0.253 |
| GTTTGCACATGGACCGGTTTTCCCGGTAATCCGTATTTGTA (site GTGTGCACTTA) | 0.0346 |
| GTTTGCACATGGACCGGTTTTCCCGGTAATCCGTATTTGTA (site GTTTGCACTTA) | 0.721 |

| Sequence | recombinant UMI read abundance (log10) |
| --- | --- |
| GTTTGGACATGGACCGGTTTTCCCGGTAATCCGTATTTGAC (site GATTGGACTGT) | 0 |
| GTTTGGACATGGACCGGTTTTCCCGGTAATCCGTATTTGAC (site GCTTGGACTGT) | 1 |
| GTTTGGACATGGACCGGTTTTCCCGGTAATCCGTATTTGAC (site GGTTGGACTGT) | 0 |
| GTTTGGACATGGACCGGTTTTCCCGGTAATCCGTATTTGAC (site GTTTGGACTGT) | 1.91 |
| TAAAGCCCATGGACCGGTTTTCCCGGTAATCCGTATTTGTA (site TAAAGACCTTA) | 0.00168 |
| TAAAGCCCATGGACCGGTTTTCCCGGTAATCCGTATTTGTA (site TAAAGCCCTTA) | 1.58 |
| TAAAGCCCATGGACCGGTTTTCCCGGTAATCCGTATTTGTA (site TAAAGGCCTTA) | 0.00691 |
| TAAAGCCCATGGACCGGTTTTCCCGGTAATCCGTATTTGTA (site TAAAGTCCTTA) | 0.0272 |
| TAAAGGGCATGGACCGGTTTTCCCGGTAATCCGTATTTGTG (site TAAAGGGCTCA) | 1.23 |
| TAAAGTACATGGACCGGTTTTCCCGGTAATCCGTATTTGTA (site TAAAGTACTTA) | 1.41 |
| TAAAGTACATGGACCGGTTTTCCCGGTAATCCGTATTTGTA (site TAAAGTCCTTA) | 0.00305 |
| TAAAGTACATGGACCGGTTTTCCCGGTAATCCGTATTTGTA (site TAAAGTGCTTA) | 0.204 |
| TAAAGTACATGGACCGGTTTTCCCGGTAATCCGTATTTGTA (site TAAAGTTCTTA) | 0 |
| TAAAGTCCATGGACCGGTTTTCCCGGTAATCCGTATTTGAA (site TAAAGTCCTTA) | 0.00424 |
| TAAAGTCCATGGACCGGTTTTCCCGGTAATCCGTATTTGAA (site TAAAGTCCTTC) | 0.144 |
| TAAAGTCCATGGACCGGTTTTCCCGGTAATCCGTATTTGAA (site TAAAGTCCTTG) | 0 |
| TAAAGTCCATGGACCGGTTTTCCCGGTAATCCGTATTTGAA (site TAAAGTCCTTT) | 0.775 |
| TAACCCACATGGACCGGTTTTCCCGGTAATCCGTATTTGTG (site TAACCCACTCA) | 0.0264 |
| TAACCTTCATGGACCGGTTTTCCCGGTAATCCGTATTTGGT (site TAACCTTCTAC) | 0.00557 |
| TAACCTTCATGGACCGGTTTTCCCGGTAATCCGTATTTGGT (site TACCCTTCTAC) | 0.00501 |
| TAACCTTCATGGACCGGTTTTCCCGGTAATCCGTATTTGGT (site TAGCCTTCTAC) | 0.244 |
| TAACCTTCATGGACCGGTTTTCCCGGTAATCCGTATTTGGT (site TATCCTTCTAC) | 0 |
| TAACTAGCATGGACCGGTTTTCCCGGTAATCCGTATTTGCG (site TAACTAGCTCG) | 0 |
| TAACTCCCATGGACCGGTTTTCCCGGTAATCCGTATTTGGC (site TAACTCCCTGC) | 0.847 |
| TAACTTCCATGGACCGGTTTTCCCGGTAATCCGTATTTGCA (site TAACTTCCTTG) | 0.949 |

| Sequence | recombinant UMI read abundance (log10) |
| --- | --- |
| TAAGAAACATGGACCGGTTTTCCCGGTAATCCGTATTTGCT (site TAAGAAACTAG) | 2.12 |
| TAAGACCCATGGACCGGTTTTCCCGGTAATCCGTATTTGTT (site TAAGACCCTAA) | 0.806 |
| TAAGCAGCATGGACCGGTTTTCCCGGTAATCCGTATTTGCT (site AAAGCAGCTAG) | 0.00963 |
| TAAGCAGCATGGACCGGTTTTCCCGGTAATCCGTATTTGCT (site CAAGCAGCTAG) | 0.371 |
| TAAGCAGCATGGACCGGTTTTCCCGGTAATCCGTATTTGCT (site GAAGCAGCTAG) | 0.00441 |
| TAAGCAGCATGGACCGGTTTTCCCGGTAATCCGTATTTGCT (site TAAGCAGCTAG) | 2.32 |
| TAAGGTCCATGGACCGGTTTTCCCGGTAATCCGTATTTGTA (site TAAAGTCCTTA) | 0.294 |
| TAAGGTCCATGGACCGGTTTTCCCGGTAATCCGTATTTGTA (site TAACGTCCTTA) | 0.0087 |
| TAAGGTCCATGGACCGGTTTTCCCGGTAATCCGTATTTGTA (site TAAGGTCCTTA) | 2.08 |
| TAAGGTCCATGGACCGGTTTTCCCGGTAATCCGTATTTGTA (site TAATGTCCTTA) | 0.00238 |
| TAAGGTGCATGGACCGGTTTTCCCGGTAATCCGTATTTGTA (site TAAGGTGCTTA) | 2.58 |
| TAAGTCACATGGACCGGTTTTCCCGGTAATCCGTATTTGGG (site AAAGTCACTCC) | 0.0244 |
| TAAGTCACATGGACCGGTTTTCCCGGTAATCCGTATTTGGG (site CAAGTCACTCC) | 0.0119 |
| TAAGTCACATGGACCGGTTTTCCCGGTAATCCGTATTTGGG (site GAAGTCACTCC) | 0.00751 |
| TAAGTCACATGGACCGGTTTTCCCGGTAATCCGTATTTGGG (site TAAGTCACTCC) | 0.00997 |
| TAAGTGCCATGGACCGGTTTTCCCGGTAATCCGTATTTGAC (site TAAGTGCCTGT) | 0.999 |
| TAATATCCATGGACCGGTTTTCCCGGTAATCCGTATTTGTC (site TAATATCCTGA) | 0.252 |
| TAATGAGCATGGACCGGTTTTCCCGGTAATCCGTATTTGGC (site TAATGAGCTAC) | 0.253 |
| TAATGAGCATGGACCGGTTTTCCCGGTAATCCGTATTTGGC (site TAATGAGCTCC) | 0.0259 |
| TAATGAGCATGGACCGGTTTTCCCGGTAATCCGTATTTGGC (site TAATGAGCTGC) | 2.42 |
| TAATGAGCATGGACCGGTTTTCCCGGTAATCCGTATTTGGC (site TAATGAGCTTC) | 0.585 |
| TAATGGCCATGGACCGGTTTTCCCGGTAATCCGTATTTGAT (site TAATGGCCTAT) | 0.00507 |
| TACAAACCATGGACCGGTTTTCCCGGTAATCCGTATTTGGT (site AACAAACCTAC) | 0 |
| TACAAACCATGGACCGGTTTTCCCGGTAATCCGTATTTGGT (site CACAAACCTAC) | 0.0034 |
| TACAAACCATGGACCGGTTTTCCCGGTAATCCGTATTTGGT (site GACAAACCTAC) | 0 |
